Our source for the Activity and ED50 values is ChEMBL document CHEMBL1158949, “Plant metabolites. New compounds and anti-inflammatory activity of Uncaria tomentosa” (1991).

Each structure is given as a SMILES string. Active and inactive are the calls of the source. No cut-off for these calls is given here.

Assay [1] deals with Rattus norvegicus. Description: Inhibition of carrageenan-induced edema in Wistar rat paw at 0.04 mg/kg to 0.51 mg/kg, po. The class given is functional, organism-based.
In assay [2] the test system is Rattus norvegicus. As to the kind of experiment: Inhibition of carrageenan-induced edema in Wistar rat paw at 20 mg/kg, po after 3 hrs. In kind it is functional.
The subject of assay [3] is Rattus norvegicus. As to the kind of experiment: Inhibition of carrageenan-induced edema in po dosed Wistar rat paw. The class given is functional.
In assay [4] the test system is Rattus norvegicus. Description: Inhibition of carrageenan-induced edema in Wistar rat paw at 5 mg/kg, po. The class given is functional, organism-based. Further details: dose 5 mg/kg.

As to `C[C@H]1[C@H](C)CC[C@]2(C(=O)O)CC[C@]3(C)C(=CC[C@@H]4[C@@]5(C)CC[C@H](O)C(C)(C)[C@@H]5CC[C@]43C)[C@H]12`, in the assay on Rattus norvegicus [1], the outcome was inactive.
In the case of `CC1(C)CC[C@]2(C(=O)O)CC[C@]3(C)C(=CC[C@@H]4[C@@]5(C)CC[C@H](O)C(C)(C)[C@@H]5CC[C@]43C)[C@@H]2C1`, the result in the assay on Rattus norvegicus [1] and with Rattus norvegicus [2] was inactive.
As to `C[C@@H]1CC[C@]2(C(=O)O)CC[C@]3(C)C(=CC[C@@H]4[C@@]5(C)CC[C@H](O)C(C)(C)[C@@H]5[C@H](O)C[C@]43C)[C@@H]2[C@]1(C)O`, the outcome in the assay with Rattus norvegicus [1] and in the assay on Rattus norvegicus [2] was inactive.
For `C[C@H]1[C@H](C)CC[C@]2(C(=O)O[C@@H]3O[C@H](CO)[C@@H](O)[C@H](O)[C@H]3O)CC[C@]3(C(=O)O)C(=CC[C@@H]4[C@@]5(C)CC[C@H](O[C@@H]6O[C@H](C)[C@H](O)[C@H](O)[C@H]6O)C(C)(C)[C@@H]5CC[C@]43C)[C@H]12`, the outcome in the assay with Rattus norvegicus [1] was inactive.
With `C[C@H]1[C@H](C)CC[C@]2(C(=O)O)CC[C@]3(C(=O)O[C@@H]4O[C@H](CO)[C@@H](O)[C@H](O)[C@H]4O)C(=CC[C@@H]4[C@@]5(C)CC[C@H](O[C@@H]6O[C@H](C)[C@@H](O)[C@H](O)[C@H]6O)C(C)(C)[C@@H]5CC[C@]43C)[C@H]12`, the outcome in the assay with Rattus norvegicus [1] was inactive. Besides, the Activity in the assay with Rattus norvegicus [2] stood at 33%.
With `C[C@H]1[C@H](C)CC[C@]2(C(=O)O)CC[C@]3(C(=O)O)C(=CC[C@@H]4[C@@]5(C)CC[C@H](O[C@@H]6O[C@H](C)[C@H](O)[C@H](O[C@@H]7O[C@H](CO)[C@@H](O)[C@H](O)[C@H]7O)[C@H]6O)C(C)(C)[C@@H]5CC[C@]43C)[C@H]12`, in the assay on Rattus norvegicus [1], the result was inactive.
Regarding `C[C@H]1[C@H](C)CC[C@]2(C(=O)O[C@@H]3O[C@H](CO)[C@@H](O)[C@H](O)[C@H]3O)CC[C@]3(C(=O)O)C(=CC[C@@H]4[C@@]5(C)CC[C@H](O[C@@H]6O[C@H](C)[C@@H](O)[C@H](O)[C@H]6O)C(C)(C)[C@@H]5CC[C@]43C)[C@H]12`, the outcome with Rattus norvegicus [1] was inactive.
`C[C@H]1[C@H](C)CC[C@]2(C(=O)O)CC[C@]3(C(=O)O[C@@H]4O[C@H](CO)[C@@H](O)[C@H](O)[C@H]4O)C(=CC[C@@H]4[C@@]5(C)CC[C@H](O[C@@H]6O[C@H](C)[C@H](O)[C@H](O[C@@H]7O[C@H](CO)[C@@H](O)[C@H](O)[C@H]7O)[C@H]6O)C(C)(C)[C@@H]5CC[C@]43C)[C@H]12`: the result in the assay with Rattus norvegicus [1] was inactive.
As to `C[C@H]1[C@H](C)CC[C@]2(C(=O)O[C@@H]3O[C@H](CO)[C@@H](O)[C@H](O)[C@H]3O)CC[C@]3(C(=O)O)C(=CC[C@@H]4[C@@]5(C)CC[C@H](O[C@@H]6O[C@H](C)[C@H](O)[C@H](O[C@@H]7O[C@H](CO)[C@@H](O)[C@H](O)[C@H]7O)[C@H]6O)C(C)(C)[C@@H]5CC[C@]43C)[C@H]12`, in the assay with Rattus norvegicus [1], the result was inactive.
The same measure, in the same setting: the result for `COC(=O)[C@]12CC[C@@H](C)[C@@](C)(O)[C@H]1C1=CC[C@@H]3[C@@]4(C)CC[C@H](O)[C@@](C)(C(=O)OC)[C@@H]4[C@H](O)C[C@@]3(C)[C@]1(C)CC2` reads “inactive”; that for `C=C[C@H]1[C@H](O[C@@H]2O[C@H](CO)[C@@H](O)[C@H](O)[C@H]2O)OC=C(C(=O)OC)[C@H]1C[C@@H]1N[C@@H](C(=O)O)Cc2c1[nH]c1ccccc21`, “inactive”; that for `C[C@H]1[C@H](C)CC[C@]2(C(=O)O)CC[C@]3(C(=O)O[C@@H]4O[C@H](CO)[C@@H](O)[C@H](O)[C@H]4O)C(=CC[C@@H]4[C@@]5(C)CC[C@H](O[C@@H]6O[C@H](C)[C@H](O)[C@H](O)[C@H]6O)C(C)(C)[C@@H]5CC[C@]43C)[C@H]12`, “inactive”.
On to `COc1ccc2c(c1)c(CC(=O)O)c(C)n2C(=O)c1ccc(Cl)cc1` [INDOMETHACIN], for which the ED50 in the assay with Rattus norvegicus [3] is given as 0.014 mmol. In addition, the result with Rattus norvegicus [4] was Active.
